{"source": "PubChem BioAssay AID493112", "about": "(Sanford-Burnham Center for Chemical Genomics, 2011)", "note": "Calls of active or inactive are those of the source.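 The calls were made as follows: active = mean half-maximal activation concentration below 100 µM; inactive = the rest.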"}
{"target": "Alkaline phosphatase, tissue-nonspecific isozyme (Homo sapiens) (UniProt P05186)", "sequence (P05186 whole entry, looked up)": "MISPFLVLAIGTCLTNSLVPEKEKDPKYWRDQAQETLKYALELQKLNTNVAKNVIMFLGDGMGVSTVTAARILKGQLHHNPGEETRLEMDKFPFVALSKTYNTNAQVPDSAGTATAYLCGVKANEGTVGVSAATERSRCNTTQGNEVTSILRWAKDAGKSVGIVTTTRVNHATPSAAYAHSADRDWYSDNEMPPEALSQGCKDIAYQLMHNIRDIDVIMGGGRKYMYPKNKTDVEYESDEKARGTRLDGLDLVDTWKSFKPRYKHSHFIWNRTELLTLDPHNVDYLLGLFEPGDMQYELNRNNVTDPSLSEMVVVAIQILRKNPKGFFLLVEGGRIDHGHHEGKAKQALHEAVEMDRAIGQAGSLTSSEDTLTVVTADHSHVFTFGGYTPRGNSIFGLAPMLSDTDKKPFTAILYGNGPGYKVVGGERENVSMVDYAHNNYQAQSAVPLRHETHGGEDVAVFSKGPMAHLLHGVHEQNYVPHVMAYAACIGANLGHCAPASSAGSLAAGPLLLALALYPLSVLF", "experiment": "effect of analogs on TNAP activity, SAR follow-up, selectivity assay for human IAP activator project, biochemical, human TNAP (AID 493112)", "conditions": "purified TNAP, CDP-Star luminescence, 30 min"}
{"smiles": "O=C(NC(=S)NNC(=O)c1ccccc1O)c1ccc(F)cc1", "IC50 (inhibition of TNAP activity)": "11.5 µM"}
{"smiles": "N#CCOc1ccccc1/C=N/NC(=O)C(=O)N/N=C/c1ccccc1OCC#N", "IC50 (inhibition of TNAP activity)": "> 100 µM (inactive)"}
{"smiles": "O=C(N/N=C/c1ccc(O)cc1)C(=O)N/N=C/c1ccc(O)cc1", "IC50 (inhibition of TNAP activity)": "> 100 µM (inactive)"}
{"smiles": "COc1ccc(-c2cc(C(=O)NN=Cc3c(O)ccc4ccccc34)[nH]n2)cc1", "IC50 (inhibition of TNAP activity)": "> 100 µM (inactive)"}
{"smiles": "CC1C(=O)NN=C1C(=O)NN=Cc1ccc(O)cc1O", "note": "(stereo not given)", "IC50 (inhibition of TNAP activity)": "> 100 µM (inactive)"}
{"smiles": "Cn1cccc1-c1cc(C(=O)NN=Cc2cc(Br)ccc2O)[nH]n1", "IC50 (inhibition of TNAP activity)": "9.38 µM"}
{"smiles": "CN(C)c1ccc(/C=N/NC(=O)C(=O)N/N=C/c2ccc(N(C)C)cc2)cc1", "IC50 (inhibition of TNAP activity)": "> 100 µM (inactive)"}
{"smiles": "Cc1cc(C(=O)N/N=C\\c2cc(C(C)(C)C)ccc2O)n[nH]1", "IC50 (inhibition of TNAP activity)": "7.22 µM"}
{"smiles": "O=C(NNC(=S)NC(=O)c1ccccc1[N+](=O)[O-])c1ccccc1O", "IC50 (inhibition of TNAP activity)": "15.3 µM"}
{"smiles": "Cc1cc(C(=O)NN=Cc2cc(Cl)cc([N+](=O)[O-])c2O)n[nH]1", "IC50 (inhibition of TNAP activity)": "> 100 µM (inactive)"}
{"smiles": "COc1cccc(C=NNC(=O)C2=NNC(=O)C2C)c1O", "note": "(stereo not given)", "IC50 (inhibition of TNAP activity)": "12.1 µM"}
{"smiles": "COc1cc(/C=N/NC(=O)C(=O)N/N=C/c2ccc(O)c(OC)c2)ccc1O", "IC50 (inhibition of TNAP activity)": "> 100 µM (inactive)"}
{"smiles": "O=C(N/N=C\\c1cccc(O)c1)C(=O)N/N=C/c1cccc(O)c1", "IC50 (inhibition of TNAP activity)": "> 100 µM (inactive)"}
{"smiles": "O=C(N/N=C/c1cc(Br)ccc1O)c1cc(C2CC2)[nH]n1", "IC50 (inhibition of TNAP activity)": "8.03 µM"}
{"smiles": "O=C(N/N=C/c1ccccc1O)c1cc(C2CC2)[nH]n1", "IC50 (inhibition of TNAP activity)": "7.51 µM"}
{"smiles": "O=C(NN=Cc1ccc(O)cc1O)C(=O)NN=Cc1ccc(O)cc1O", "IC50 (inhibition of TNAP activity)": "> 100 µM (inactive)"}
{"smiles": "CC(=O)Nc1cccc(C(=O)NNC(=O)c2n[nH]c(=O)c3ccccc23)c1", "IC50 (inhibition of TNAP activity)": "10.3 µM"}
{"smiles": "CC(C)C(=O)NC(=S)Nc1ccccc1C(=O)Nc1ccccc1", "IC50 (inhibition of TNAP activity)": "10.4 µM"}
{"smiles": "COc1ccc(-c2csc(Nc3cccc4ccccc34)n2)cc1F", "IC50 (inhibition of TNAP activity)": "> 100 µM (inactive)"}
{"smiles": "O=C(N/N=C/c1cc(Br)ccc1O)C(=O)N/N=C/c1cc(Br)ccc1O", "IC50 (inhibition of TNAP activity)": "> 100 µM (inactive)"}
{"smiles": "COC(=O)c1ccc(/C=N/NC(=O)C(=O)N/N=C/c2ccc(C(=O)OC)cc2)cc1", "IC50 (inhibition of TNAP activity)": "> 100 µM (inactive)"}
{"smiles": "O=C(CCN1C(=O)/C(=C/c2ccccc2Cl)SC1=S)NNC(=O)c1ccccc1O", "IC50 (inhibition of TNAP activity)": "> 100 µM (inactive)"}
{"smiles": "COc1ccc(OC)c(/C=N/NC(=O)C(=O)N/N=C/c2cc(OC)ccc2OC)c1", "IC50 (inhibition of TNAP activity)": "69.5 µM"}
{"smiles": "OC(c1nc2ccc(F)cc2[nH]1)C(O)c1nc2ccc(F)cc2[nH]1", "note": "(stereo not given)", "IC50 (inhibition of TNAP activity)": "7.21 µM"}
{"smiles": "COc1cc(/C=N/NC(=O)C(=O)N/N=C/c2cc(OC)c(OC)c(OC)c2)cc(OC)c1OC", "IC50 (inhibition of TNAP activity)": "> 100 µM (inactive)"}
{"smiles": "O=C(NN=Cc1c(O)ccc2ccccc12)c1[nH]ncc1Br", "IC50 (inhibition of TNAP activity)": "> 100 µM (inactive)"}
{"smiles": "O=C(N/N=C/c1c(O)ccc2ccccc12)C(=O)N/N=C/c1c(O)ccc2ccccc12", "IC50 (inhibition of TNAP activity)": "> 100 µM (inactive)"}
{"smiles": "COc1cc(OC)c(OC)cc1/C=N/NC(=O)C(=O)N/N=C/c1cc(OC)c(OC)cc1OC", "IC50 (inhibition of TNAP activity)": "> 100 µM (inactive)"}
{"smiles": "COc1cccc(C=NNC(=O)c2[nH]nc3c2CCc2ccccc2-3)c1O", "IC50 (inhibition of TNAP activity)": "10.9 µM"}
{"smiles": "CCOc1cc(/C=N/NC(=O)C(=O)N/N=C/c2ccc(O)c(OCC)c2)ccc1O", "IC50 (inhibition of TNAP activity)": "> 100 µM (inactive)"}
{"smiles": "C/C(=N\\NC(=O)c1cc(C)[nH]n1)c1ccc2ccccc2c1O", "IC50 (inhibition of TNAP activity)": "> 100 µM (inactive)"}
{"smiles": "O=C(NN=Cc1ccccc1)C(=O)NN=Cc1ccccc1", "IC50 (inhibition of TNAP activity)": "24.5 µM"}
{"smiles": "O=C(N/N=C/c1c(O)ccc2ccccc12)c1cc(-c2cccs2)[nH]n1", "IC50 (inhibition of TNAP activity)": "> 100 µM (inactive)"}
{"smiles": "C/C(=N\\NC(=O)c1[nH]nc2c1CCc1ccccc1-2)c1ccccc1O", "IC50 (inhibition of TNAP activity)": "8.78 µM"}
{"smiles": "Cc1ccc(-c2cc(C(=O)NN=Cc3ccccc3O)n[nH]2)o1", "IC50 (inhibition of TNAP activity)": "6.16 µM"}
{"smiles": "O=C(N/N=C/c1ccc2c(c1)OCO2)C(=O)N/N=C/c1ccc2c(c1)OCO2", "IC50 (inhibition of TNAP activity)": "> 100 µM (inactive)"}
{"smiles": "COc1cccc(C=NNC(=O)C(=O)NN=Cc2cccc(OC)c2OC)c1OC", "IC50 (inhibition of TNAP activity)": "36.1 µM"}
{"smiles": "COc1cccc(C=NNC(=O)c2cc(-c3cccn3C)n[nH]2)c1O", "IC50 (inhibition of TNAP activity)": "9.52 µM"}
{"smiles": "CCCCOc1ccc(/C=N/NC(=O)C(=O)N/N=C/c2ccc(OCCCC)cc2)cc1", "IC50 (inhibition of TNAP activity)": "> 100 µM (inactive)"}
{"smiles": "COc1cc(/C=N\\NC(=O)C(=O)N/N=C/c2cc(OC)c(O)c(OC)c2)cc(OC)c1O", "IC50 (inhibition of TNAP activity)": "> 100 µM (inactive)"}
{"smiles": "COc1ccc(/C=N/NC(=O)C(=O)N/N=C/c2ccc(OC)c(OC)c2)cc1OC", "IC50 (inhibition of TNAP activity)": "> 100 µM (inactive)"}
{"smiles": "COc1cc(OC)cc(C(=O)NNC(=O)c2nn(C)c(=O)c3ccccc23)c1", "IC50 (inhibition of TNAP activity)": "10.9 µM"}
{"smiles": "Cc1ccc(O)c(C=NNC(=O)c2[nH]ncc2Br)c1", "IC50 (inhibition of TNAP activity)": "15.6 µM"}
{"smiles": "O=C(N/N=C/c1ccccc1C(=O)O)C(=O)N/N=C/c1ccccc1C(=O)O", "IC50 (inhibition of TNAP activity)": "36.2 µM"}
{"smiles": "CCOc1cccc(C=NNC(=O)c2cc(-c3cccn3C)n[nH]2)c1O", "IC50 (inhibition of TNAP activity)": "10.2 µM"}
{"smiles": "Cc1cc(C(=O)N/N=C/c2cc(Br)ccc2O)n[nH]1", "IC50 (inhibition of TNAP activity)": "8.35 µM"}
{"smiles": "CCN(CC)c1ccc(/C=N/NC(=O)C(=O)N/N=C/c2ccc(N(CC)CC)cc2O)c(O)c1", "IC50 (inhibition of TNAP activity)": "> 100 µM (inactive)"}
{"smiles": "CC(C)Oc1ccccc1/C=N/NC(=O)C(=O)N/N=C/c1ccccc1OC(C)C", "IC50 (inhibition of TNAP activity)": "54.3 µM"}
{"smiles": "CC(=O)Nc1ccc(/C=N/NC(=O)C(=O)N/N=C/c2ccc(NC(C)=O)cc2)cc1", "IC50 (inhibition of TNAP activity)": "> 100 µM (inactive)"}
{"smiles": "CCOc1cccc(C=NNC(=O)c2cc(C3CC3)[nH]n2)c1O", "IC50 (inhibition of TNAP activity)": "12.2 µM"}
{"smiles": "COc1cccc(C=NNC(=O)C(=O)NN=Cc2cccc(OC)c2O)c1O", "IC50 (inhibition of TNAP activity)": "> 100 µM (inactive)"}
{"smiles": "O=C(N/N=C/c1ccccc1O)c1n[nH]c2c1CCC2", "IC50 (inhibition of TNAP activity)": "4.74 µM"}
{"smiles": "CC(=NNC(=O)C(=O)NN=C(C)c1cccc(O)c1)c1cccc(O)c1", "IC50 (inhibition of TNAP activity)": "> 100 µM (inactive)"}
{"smiles": "O=C(N/N=C\\c1ccc2c(c1)OCO2)C(=O)N/N=C/c1ccc2c(c1)OCO2", "IC50 (inhibition of TNAP activity)": "> 100 µM (inactive)"}
{"smiles": "Cc1cc(C(=O)NN=Cc2cccc([N+](=O)[O-])c2O)n[nH]1", "IC50 (inhibition of TNAP activity)": "> 100 µM (inactive)"}
